Source: US20130040908A1, “SUBSTITUTION DERIVATIVES OF N6-BENZYLADENOSINE-5' -MONOPHOSPHATE, METHODS OF PREPARATION THEREOF, USE THEREOF AS MEDICAMENTS, AND THERAPEUTIC PREPARATIONS CONTAINING THESE COMPOUNDS” (BIOAPEX, S.R.O., priority 2010, published 2013)

Key:
[1] = test system: K-562 (human erythroleukemia); experiment: Calcein AM cytotoxicity assay, K-562; format: cell-based; settings: K-562, 72 hours
Excerpt: (§1) Because toxic compounds negatively influence metabolic processes in cells, many standard cytotoxicity assays are based on measurement of metabolisation rate of various artificial substrates. Resulting product is then quantified e.g. by means of spectrometry. The assays can be easily modified for use in 96-well plates. For evaluation of cytotoxic effect of the novel substituted 9-substituted cytokinin derivatives of this invention, a microtiter assay based on quantification of metabolisation of Calcein AM was used. The assay is widely used in drug screening programs and in chemosensitivity testing. In the living cells, Calcein AM is enzymatically hydrolysed and accumulation of resulting calcein is manifested by green fluorescence.
(§2) Normal human fibroblasts BJ were used as a control for routine screening of the compounds. The cells were kept in Nunc/Corning 80 cm^2 plastic bottles and grown in cell culture medium (DMEM containing 5 g/l glucose, 2 mM glutamine, 100 U/ml penicillin, 100 μg/ml streptomycine, 10% fetal bovine serum and sodium hydrogencarbonate), the compounds were prepared according to the procedure of the present invention.
(§3) The cell suspensions were prepared and diluted according to the particular cell type and the expected target cell density (2.500-30.000 cells per well based on cell growth characteristics) and pippetted (80 μl) into 96-well plates. […] Tested compound was added in total volume of 20 μl of water at time zero. Usually, test compound was evaluated at six 3-fold dilutions. […] All drug concentrations were tested in triplicates. […] At the end of incubation period Calcein AM in PBS was added into final concentration of 1 μg/ml. After another 1 hour of incubation fluorescence (FD) was measured with the Labsystem FIA Reader Fluoroscan Ascent (UK). Growth inhibition (GI) was estimated using the following equitation: GI=(mean FDdrug exposed wells−mean FDblank)/(mean FDcontrol wells−mean FDblank)×100%.

[2] = test system: CEM (T-lymphoblastoid leukemia); experiment: Calcein AM cytotoxicity assay, CEM; format: cell-based; settings: 72 hours
Excerpt: as §1, §2, §3

[3] = test system: HL-60 (promyelocytic leukemia); experiment: Calcein AM cytotoxicity assay, HL60; format: cell-based, human; settings: HL60, 72 hours
Excerpt: as §1, §2, §3

Human lymphocytes = experiment: Immunosuppressive activity, 3H-thymidine incorporation in concanavalin A activated lymphocytes; format: cell-based; settings: 72 hours, [3H]-TdR
Excerpt: One of the most important parameters of specific cellular immunity is the proliferative response of lymphocytes to antigens or polyclonal mitogens. The majority of normal mammalian peripheral lymphocytes comprise resting cells. Antigens or nonspecific polyclonal mitogens have the capacity to activate lymphoid cells and this is accompanied by dramatic changes of intracellular metabolism (mitochondrial activity, protein synthesis, nucleic acids synthesis, formation of blastic cells and cellular proliferation). […] Variety of in vitro assays was developed to measure proliferative response of lymphocytes. The most commonly used is ^3H-thymidine incorporation method.
During cell proliferation, DNA has to be replicated before the cell is divided into two daughter cells. This close association between cell doublings and DNA synthesis is very attractive for assessing cell proliferation. If labelled DNA precursors are added to the cell culture, cells that are about to divide incorporate the labelled nucleotide into their DNA. Traditionally, those assays usually involve the use of radiolabelled nucleosides, particularly tritiated thymidine ([^3H]-TdR). The amount of [^3H]-TdR incorporated into the cellular DNA is quantified by liquid scintillation counting. Human heparinized peripheral blood was obtained from healthy volunteers by cubital vein punction. The blood was diluted in PBS (1:3) and mononuclear cells were separated by centrifugation in Ficoll-Hypaque density gradient (Pharmacia, 1.077 g/ml) at 2200 rpm for 30 minutes. Following centrifugation, lymphocytes were washed in PBS and resuspended in cell culture medium (RMPI 1640, 2 mM glutamine, 100 U/ml penicillin, 100 μg/ml streptomycin, 10% fetal calf serum and sodium bicarbonate).
The cells were diluted at target density of 1.100.000 cells/ml and were added by pipette (180 μl) into 96-well microtiter plates. Four-fold dilutions of the intended test concentration were added at time zero in 20 μl aliquots to the microtiter plate wells. Usually, test compound was evaluated at six 4-fold dilutions. In routine testing, the highest well concentration was 266.7 μM. All drug concentrations were examined in duplicates. All wells with exception of unstimulated controls were activated with 50 of concanavalin A (25 μg/ml). Incubations of cells with test compounds lasted for 72 hours at 37° C., in 5% CO2 atmosphere and 100% humidity. At the end of incubation period, the cells were assayed by using the [^3H]-TdR:
Cell cultures were incubated with 0.5 μCi (20 μl of stock solution 500 μCi/ml per well for 6 hours at 37° C. and 5% CO2. The automated cell harvester was used to lyse cells in water and adsorb the DNA onto glass-fiber filters in the format of microtiter plate. The DNA incorporated [^3H]-TdR was retained on the filter while unincorporated material passes through. The filters were dried at room temperature overnight, sealed into a sample bag with 10-12 ml of scintillant. The amount of [^3H]-TdR present in each filter (in cpm) was determined by scintillation counting in a Betaplate liquid scintillation counter. The effective dose of immunosuppressant (ED) was calculated using the following equation: ED=(CCPMdrug exposed well/mean CCPMcontrol wells)×100%. The ED50 value, the drug concentration inhibiting proliferation of 50% of lymphocytes, was calculated from the obtained dose response curves.

MCF-7 (breast carcinoma) = experiment: Calcein AM cytotoxicity assay, MCF7; format: cell-based; settings: MCF7, 72 hours
Excerpt: as §1, §2, §3

Row | SMILES | GI50 [1] [µM] | GI50 [2] [µM] | GI50 [3] [µM] | Human lymphocytes ED50 (Human lymphocytes) [µM] | GI50 (MCF-7 (breast carcinoma)) [µM]
1 | O=P(O)(O)OC[C@H]1O[C@@H](n2cnc3c(NCc4ccc(F)cc4Cl)ncnc32)[C@H](O)[C@@H]1O [2-chloro-4-fluorobenzylamino, 6-(2-chloro-4-fluorobenzylamino)purine riboside-5′-monophosphate] | 9.6 | 12.7 | 7.9 | – | –
2 | O=P(O)(O)OC[C@H]1O[C@@H](n2cnc3c(NCc4cccc(Cl)c4O)ncnc32)[C@H](O)[C@@H]1O [2-hydroxy-3-chlorobenzylamino, 6-(2-hydroxy-3-chlorobenzylamino)purine riboside-5′-monophosphate] | – | – | – | 3.2 | –
3 | COc1ccc(CNc2ncnc3c2ncn3[C@@H]2O[C@H](COP(=O)(O)O)[C@@H](O)[C@H]2O)c(O)c1 [2-hydroxy-4-methoxybenzylamino, 6-(2-hydroxy-4-methoxybenzylamino)purine riboside-5′-monophosphate] | – | – | – | 2.1 | –
4 | O=P(O)(O)OC[C@H]1O[C@@H](n2cnc3c(NCc4ccc(O)c(O)c4)ncnc32)[C@H](O)[C@@H]1O [3,4-dihydroxybenzylamino, 6-(3,4-dihydroxybenzylamino)purine riboside-5′-monophosphate] | – | – | – | 9.4 | –
5 | O=P(O)(O)OC[C@H]1O[C@@H](n2cnc3c(NCc4ccccc4F)ncnc32)[C@H](O)[C@@H]1O [Compound 1, 6-(2-fluorobenzylamino)purine riboside-5′-monophosphate] | 31.7 | 3.9 | 3.3 | 6.3 | –
6 | O=P(O)(O)OC[C@H]1O[C@@H](n2cnc3c(NCc4ccccc4Cl)ncnc32)[C@H](O)[C@@H]1O [Compound 4, 6-(2-chlorobenzylamino)purine riboside-5′-monophosphate] | 56 | 1.9 | 1.4 | 8.7 | –
7 | O=P(O)(O)OC[C@H]1O[C@@H](n2cnc3c(NCc4cccc(Cl)c4)ncnc32)[C@H](O)[C@@H]1O [Compound 5, 6-(3-chlorobenzylamino)purine riboside-5′-monophosphate] | 23.4 | 1.5 | 0.5 | 3.2 | –
8 | O=P(O)(O)OC[C@H]1O[C@@H](n2cnc3c(NCc4ccc(Cl)cc4)ncnc32)[C@H](O)[C@@H]1O [Compound 6, 6-(4-chlorobenzylamino)purine riboside-5′-monophosphate] | 12.6 | 4.9 | – | 3.3 | –
9 | O=P(O)(O)OC[C@H]1O[C@@H](n2cnc3c(NCc4ccccc4Br)ncnc32)[C@H](O)[C@@H]1O [Compound 7, 6-(2-bromobenzylamino)purine riboside-5′-monophosphate] | 9.7 | 2.3 | 5.9 | – | 45.6
10 | O=P(O)(O)OC[C@H]1O[C@@H](n2cnc3c(NCc4cccc(Br)c4)ncnc32)[C@H](O)[C@@H]1O [Compound 8, 6-(3-bromoobenzylamino)purine riboside-5′-monophosphate] | 19.1 | 5.1 | 4.2 | – | –
11 | O=P(O)(O)OC[C@H]1O[C@@H](n2cnc3c(NCc4ccc(Br)cc4)ncnc32)[C@H](O)[C@@H]1O [Compound 9, 6-(4-bromobenzylamino)purine riboside-5′-monophosphate] | 49.9 | 17.6 | 41.3 | – | –
12 | Cc1ccccc1CNc1ncnc2c1ncn2[C@@H]1O[C@H](COP(=O)(O)O)[C@@H](O)[C@H]1O [Compound 12, 6-(2-methylbenzylamino)purine riboside-5′-monophosphate] | – | 11.4 | 3.1 | 7.3 | 144
13 | COc1cccc(CNc2ncnc3c2ncn3[C@@H]2O[C@H](COP(=O)(O)O)[C@@H](O)[C@H]2O)c1 [Compound 16, 6-(3-methoxybenzylamino)purine riboside-5′-monophosphate] | 122 | 4.6 | 5.1 | – | 48.1
14 | O=P(O)(O)OC[C@H]1O[C@@H](n2cnc3c(NCc4ccc(O)cc4)ncnc32)[C@H](O)[C@@H]1O [Compound 23, 6-(4-hydroxybenzylamino)purine riboside-5′-monophosphate] | – | 19.4 | 9.7 | – | –
15 | O=P(O)(O)OC[C@H]1O[C@@H](n2cnc3c(NCc4ccc(Cl)cc4Cl)ncnc32)[C@H](O)[C@@H]1O [Compound 24] | 81.5 | 81.2 | 72.4 | – | 122
16 | COc1cccc(CNc2ncnc3c2ncn3[C@@H]2O[C@H](COP(=O)(O)O)[C@@H](O)[C@H]2O)c1OC [Compound 31, 6-(2,3-dimethoxybenzylamino)purine riboside-5′-monophosphate] | – | – | 91 | – | –
17 | COc1ccc(CNc2ncnc3c2ncn3[C@@H]2O[C@H](COP(=O)(O)O)[C@@H](O)[C@H]2O)c(OC)c1 [Compound 32, 6-(2,4-dimethoxybenzylamino)purine riboside-5′-monophosphate] | – | – | 41 | – | –
18 | COc1cc(CNc2ncnc3c2ncn3[C@@H]2O[C@H](COP(=O)(O)O)[C@@H](O)[C@H]2O)cc(OC)c1 [Compound 34, 6-(3,5-dimethoxybenzylamino)purine riboside-5′-monophosphate] | – | – | 19.8 | – | –
19 | O=P(O)(O)OC[C@H]1O[C@@H](n2cnc3c(NCc4ccc(F)cc4F)ncnc32)[C@H](O)[C@@H]1O [Compound 36, 6-(2,4-difluorobenzylamino)purine riboside-5′-monophosphate] | 5.9 | 4.9 | 2.8 | – | –
20 | O=P(O)(O)OC[C@H]1O[C@@H](n2cnc3c(NCc4cc(F)cc(F)c4)ncnc32)[C@H](O)[C@@H]1O [Compound 37, 6-(3,5-difluorobenzylamino)purine riboside-5′-monophosphate] | – | 21.1 | 6.9 | – | –
21 | O=P(O)(O)OC[C@H]1O[C@@H](n2cnc3c(NCc4ccc(F)c(F)c4F)ncnc32)[C@H](O)[C@@H]1O [Compound 38, 6-(2,3,4-trifluorobenzylamino)purine riboside-5′-monophosphate] | – | 58.6 | 11.3 | – | –
22 | O=P(O)(O)OC[C@H]1O[C@@H](n2cnc3c(NCc4c(F)ccc(F)c4F)ncnc32)[C@H](O)[C@@H]1O [Compound 40, 6-(2,3,6-trifluorobenzylamino)purine riboside-5′-monophosphate] | – | – | 11.3 | – | –
23 | O=P(O)(O)OC[C@H]1O[C@@H](n2cnc3c(NCc4ccc(F)c(Cl)c4)ncnc32)[C@H](O)[C@@H]1O [Compound 41, 6-(3-chloro-4-fluorobenzylamino)purine riboside-5′-monophosphate] | 4.3 | 1.4 | 3.1 | – | 99.1
